Experimental data as given in patent publication US20080085244A1, “Methods for identifying and using amyloid-inhibitory compounds” (Wyeth, priority 1999, published 2008).
Read-outs that look alike come from different tables or passages of the source.

What was measured:
[1] = Uterine weight (E2-induced hypertrophy) in ovariectomized guinea pigs; type: in vivo, guinea pig
Procedure: Maintenance of animals and treatment. Ovariectomized (ovx) and intact female guinea pigs were purchased from Hilltop Laboratories (Scottsdale, Pa.); ovx animals were 8 weeks old at the time of surgery. 17β-estradiol (E2) was purchased from Sigma (St. Louis, Mo.). Throughout the study, the animals were fed ad libitum in a controlled lighting environment (12 h/12 h light/dark cycles). After the surgery, the ovx guinea pigs were put on a casein-based, soy-free diet (Purina, Richmond, Ind.) to exclude the presence of phytosteroids in the diet. The intact animals also began receiving soy-free food at approximately 8 weeks of age. […] E2 was administered per os by powdering the hormone into the soy-free chow. Prior to the beginning of the treatment, all animals were weighed. The average daily food intake for each animal using this particular diet was determined in a preliminary experiment.
Tissue collection. At the end of the treatment, all animals were sacrificed by decapitation. Trunk blood was collected for determination of E2 levels in the serum by radioimmunoassay (Diagnostic Products Laboratory). Uteri were removed and weighed to establish E2-induced hypertrophy. The brains were immediately removed, and the cerebellum was dissected away from each brain. The rest of the brain was divided into hemispheres which were snap-frozen and stored at −80° C.
Seven ovx guinea pigs (8 weeks old at the time of ovx) were used. After ovx, the animals were fed soy-free, casein-based diet to avoid the consumption of estrogenic phytosteroids. […] E2 was administered per os by powdering the hormone into the soy-free chow. […] After the treatment, all animals were sacrificed, and blood, uteri, and brains were collected for analysis. Uterine weights and serum E2 levels were determined to document the hormonal status. The levels of Aβ40, Aβ42, and sAPPα in brain tissue were determined using Aβ40- and Aβ42-specific ELISA assays and quantitative immunoblotting, respectively, as described in Methods.
At the end of the E2 treatment, all animals were sacrificed by decapitation, and blood, uteri, and brains were isolated and subjected to analysis.

brain Aβ (Aβ40, Aβ42) = experiment: Brain Aβ40, Aβ42 and total Aβ levels by ELISA of DEA brain extracts of ovariectomized guinea pigs; type: in vivo, guinea pig
Procedure: Maintenance of animals and treatment. Ovariectomized (ovx) and intact female guinea pigs were purchased from Hilltop Laboratories (Scottsdale, Pa.); ovx animals were 8 weeks old at the time of surgery. […] Throughout the study, the animals were fed ad libitum in a controlled lighting environment (12 h/12 h light/dark cycles). After the surgery, the ovx guinea pigs were put on a casein-based, soy-free diet (Purina, Richmond, Ind.) to exclude the presence of phytosteroids in the diet. The intact animals also began receiving soy-free food at approximately 8 weeks of age. […] Prior to the beginning of the treatment, all animals were weighed. The average daily food intake for each animal using this particular diet was determined in a preliminary experiment.
Tissue collection. At the end of the treatment, all animals were sacrificed by decapitation. […] The brains were immediately removed, and the cerebellum was dissected away from each brain. The rest of the brain was divided into hemispheres which were snap-frozen and stored at −80° C.
Preparation of Brain Extracts. Soluble Proteins from the Brains were Recovered using a modification of an established protocol (Savage et al., J. Neurosci., 1998, 18:1743-52). Briefly, the hemispheres were homogenized in 0.2% diethylamine (DEA)/50 mM NaCl at 1:10 w/v ratio, with 5-6 strokes of a Dounce homogenizer. The DEA homogenate was centrifuged for 90 min at 100,000 g. The DEA supernatants were neutralized to pH about 8.0 by addition of 1/10th vol. of 0.5M Tris-Cl pH 6.8, then aliquoted and snap-frozen. The pellets of the DEA extracts were solubilized in 2% SDS/PBS containing a cocktail of protease inhibitors (“Complete”, Boehringer Mannheim, Germany), sonicated and boiled. The protein concentrations of the DEA and SDS supernatants were determined using the BCA reagent assay kit (Pierce, Rockford, Ill.).
Detection of sAPPα, flAPP, Aβ40 and Aβ42. The amino acid sequence of APP from guinea pigs is 97% identical to the human APP homologue and the Aβ region is 100% identical to human Aβ (Beck et al., Biochim. Biophys. Acta, 1997, 1351:17-21), thus enabling use of well characterized Aβ antibodies to study the effects of estrogen on APP metabolism.
The levels of Aβ40 and Aβ42 were determined by Aβ40- and Aβ42-specific ELISA assays (Mehta et al, Neurosci. Lett., 1998, 241:13-16). For each animal, the levels of Aβ40, Aβ42, and total Aβ were standardized to brain tissue weight and expressed as ng (Aβ)/g (brain tissue, wet weight). In all experiments, animals were coded prior to tissue collection, and the treatment status of each animal was unknown to the investigators at the time of the assays.
Seven ovx guinea pigs (8 weeks old at the time of ovx) were used. After ovx, the animals were fed soy-free, casein-based diet to avoid the consumption of estrogenic phytosteroids. […] After the treatment, all animals were sacrificed, and blood, uteri, and brains were collected for analysis. […] The levels of Aβ40, Aβ42, and sAPPα in brain tissue were determined using Aβ40- and Aβ42-specific ELISA assays and quantitative immunoblotting, respectively, as described in Methods.

[2] = Serum E2 levels in ovariectomized APP transgenic rodents; type: in vivo, transgenic mice and rats (human APP); settings: ovx APP transgenic rodents, E2 in chow 10 days, compared to untreated ovx
From the text: (§1) Transgenic APP and APP/PS rodents. Transgenic animals relevant to Alzheimer's Disease have been reviewed (Seabrook and Rosahl, Neuropharmacology, 1999, 38:1-17; see, Detailed Description, supra). Both mice and rats have been made transgenic for APP, for PS1 and for both genes, and with wild-type and FAD mutant forms of the genes,. One group of these animals is ovariectomized. 17β-Estradiol (E2) is purchased from Sigma (St. Louis, Mo.). Animals are fed ad libitum in a controlled lighting environment, using a casine-based, soy-free diet, as described in Example 1. […] E2 is administered per os by powdering the hormone in the soy-free chow. All animals are weighed at the beginning prior to treatment. Average daily food intake is determined prior to treatment as well.
(§2) Tissue collection. After treatment, all animals are sacrificed by decapitation. Trunk blood is collected for determination of E2 levels. Uteri are removed and weighed to establish the presence of atrophy due to estrogen deficiency or E2-induced hypertrophy. Brains are immediately removed and the cerebellum dissected away. The brain is divided into hemispheres which are snap-frozen and stored at −80° C.

[3] = Uterine weight in ovariectomized APP transgenic rodents; type: in vivo, transgenic mice and rats (human APP); settings: ovx APP transgenic rodents, E2 in chow 10 days, compared to untreated ovx
From the text: as §1, §2

brain Aβ = experiment: Brain Aβ levels in ovariectomized APP transgenic rodents; type: in vivo, transgenic mice and rats (human APP); settings: ovx APP transgenic rodents; approaching the levels found in intact animals
From the text: Preparation of Brain Extracts.
Detection of sAPPα, flAPP, Aβ40 and Aβ42.

Aβ40 and Aβ42 peptides [4] = settings: physiological concentrations; rodent primary neuronal (embryonic cerebral cortex) cultures; cited from earlier work
Aβ40 and Aβ42 peptides [5] = settings: physiological concentrations; human primary neuronal (embryonic cerebral cortex) cultures; cited from earlier work
[6] = ovx + high-dose E2, 5 mg E2/kg BW/day per os, 10 days
[7] = ovx + low-dose E2, 1 mg E2/kg BW/day per os, 10 days

C[C@]12CC[C@@H]3c4ccc(O)cc4CC[C@H]3[C@@H]1CC[C@@H]2O [E2, 17β-estradiol]
increase in uterine weight, ovx+E2 group compared to ovx group ([1]; first experiment, 1 mg E2/kg BW/day per os, 10 days, p=0.0003): greater than 3 fold | state of uteri ([1]; high-dose E2 for 10 days, weights did not exceed the low-dose group): uterine hypertrophy | state of uteri ([1]; low-dose E2 for 10 days, weights comparable to or higher than intact group): hypertrophied | Uterine weight mean +/− SEM [1, 6]: 1.03 ± 0.08 g | Uterine weight median [1, 6]: 1.055 g | Uterine weight mean +/− SEM [1, 7]: 1.4 ± 0.18 g | Uterine weight median [1, 7]: 1.37 g | average decrease in total Aβ levels in brain compared to ovx group (brain Aβ (Aβ40, Aβ42); first experiment, 1 mg E2/kg BW/day per os, 10 days, p=0.09): 20% | Total Aβ (median) (brain Aβ (Aβ40, Aβ42); [6]): 2.094 ngAβ/g brain tissue | Total Aβ mean +/− SEM (brain Aβ (Aβ40, Aβ42); [6]): 1.998 +/− 0.175 ngAβ/g brain tissue | Total Aβ (median) (brain Aβ (Aβ40, Aβ42); [7]): 2.063 ngAβ/g brain tissue | Total Aβ mean +/− SEM (brain Aβ (Aβ40, Aβ42); [7]): 2.023 +/− 0.134 ngAβ/g brain tissue | average decrease in ovx-associated increase in brain Aβ levels (summary statement) (brain Aβ (Aβ40, Aβ42); ovx guinea pigs, E2 for ten days beginning 8 weeks after ovx, p<0.01): 20% | average decrease for Aβ40 compared to ovx (brain Aβ (Aβ40, Aβ42); second experiment, low-dose E2 10 days, p<0.01): 18% | average decrease for Aβ42 compared to ovx (brain Aβ (Aβ40, Aβ42); second experiment, low-dose E2 10 days, p=0.033): 21% | average decrease of total brain Aβ levels compared to ovx (brain Aβ (Aβ40, Aβ42); second experiment, low-dose E2 (1 mg/kg BW/day) 10 days, p<0.01): 18% | serum E2 levels after oral E2 [2]: dramatic increase | uterine effect of oral E2 [3]: uterine hypertrophy | levels of brain Aβ after E2 treatment (brain Aβ): decrease | levels of Aβ40 and Aβ42 peptides released (Aβ40 and Aβ42 peptides [4]): decreased | levels of Aβ40 and Aβ42 peptides released (Aβ40 and Aβ42 peptides [5]): decreased
